Here are results for 1 compound from patent US8859543B2, “Imidazo[1,2-a]pyrazine derivatives and their use for the prevention or treatment of neurological, psychiatric and metabolic disorders and diseases” (Janssen Pharmaceutica NV, priority 2010, dated 2014).

Where two headings read alike, the source gives them in different places. Bounds are passed on as bounds.

One experiment deals with PDE5A (Homo sapiens, UniProt O76074). In words: In vitro PDE selectivity assay, PDE5A. Format: biochemical. As to conditions: Table 4a in vitro selectivity; read-out: IC50 PDE type 5A. The method, then:
(§1) Rat recombinant PDE10A (rPDE10A2) was expressed in Sf9 cells using a recombinant rPDE10A baculovirus construct. Cells were harvested after 48 h of infection and the rPDE10A protein was purified by metal chelate chromatography on Ni-sepharose 6FF. […] The reaction was incubated for 60 min. at RT. […] After sedimentation of the beads during 30 min. the radioactivity was measured in a Perkin Elmer Topcount scintillation counter and results were expressed as cpm. For blank values the enzyme was omitted from the reaction and replaced by incubation buffer. […] The same assay principle is applied for the measurement of the affinity of the compound for other members of the PDE family with appropriate modifications in incubation buffer, substrate concentration, incubation time and stop solution.

The next experiment deals with PDE4D (Homo sapiens, UniProt Q08499). Nature of the experiment: In vitro PDE selectivity assay, PDE4D. Particulars: Table 4a in vitro selectivity; read-out: IC50 PDE type 4D. Format: biochemical. The method, then:
as §1

For experiment [1], the system named is PCP-induced hyperlocomotion. In words: PCP-induced hyperlocomotion in rats (PCP). As to conditions: Rattus norvegicus. The experiment is classed as in vivo.
Experiment [2] has as its system apomorphine-induced stereotypy. In words: Apomorphine-induced stereotypy in rats (APO). As to conditions: Rattus norvegicus, read-out: APO ED50. Format: in vivo. As for the experimental part:
Apomorphine-Induced Stereotypy in Rats (APO)
Apomorphine (1.0 mg/kg, i.v.)-induced stereotypy (compulsive sniffing, licking, chewing) was scored every 5 min. over the first hour after injection of apomorphine, following a 1 hour interval pre-treatment with the test compound. The score system was: (3) pronounced, (2) moderate, (1) slight, and (O) absent.

The target in experiment [3] is T1, Rat recombinant PDE10A (rPDE10A2) (Rattus norvegicus, UniProt Q9QYJ6).
T1 construct: made in house; host or cells: Sf9 insect cells, baculovirus
T1 sequence (Q9QYJ6 1-794): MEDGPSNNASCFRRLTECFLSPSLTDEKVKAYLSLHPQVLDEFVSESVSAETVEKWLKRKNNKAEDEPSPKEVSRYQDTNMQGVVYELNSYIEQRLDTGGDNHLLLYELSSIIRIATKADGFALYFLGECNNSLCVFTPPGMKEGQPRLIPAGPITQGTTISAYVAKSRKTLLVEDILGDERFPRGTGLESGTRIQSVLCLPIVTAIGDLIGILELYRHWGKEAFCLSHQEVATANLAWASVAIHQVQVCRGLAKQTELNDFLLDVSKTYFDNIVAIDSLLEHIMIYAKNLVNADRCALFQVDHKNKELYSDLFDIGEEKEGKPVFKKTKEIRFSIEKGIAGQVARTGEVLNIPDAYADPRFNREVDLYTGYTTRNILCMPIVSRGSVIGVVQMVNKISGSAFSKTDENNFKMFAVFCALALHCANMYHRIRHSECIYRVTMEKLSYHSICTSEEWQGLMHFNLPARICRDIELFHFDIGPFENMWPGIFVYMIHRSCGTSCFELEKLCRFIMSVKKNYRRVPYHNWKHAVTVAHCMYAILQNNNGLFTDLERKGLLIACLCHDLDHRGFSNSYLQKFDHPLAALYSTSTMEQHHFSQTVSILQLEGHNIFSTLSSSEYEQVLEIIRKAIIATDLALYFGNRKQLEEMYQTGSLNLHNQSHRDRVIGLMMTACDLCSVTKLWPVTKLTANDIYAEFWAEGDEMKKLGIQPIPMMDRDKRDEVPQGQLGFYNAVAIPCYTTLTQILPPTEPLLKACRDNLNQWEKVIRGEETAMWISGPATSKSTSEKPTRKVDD
In words: In vitro assay PDE10A (SPA, 3H-cAMP). The experiment is classed as biochemical. The procedure, abridged:
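Purified Sf9-expressed rat PDE10A2 incubated 60 min at RT with 60 nM cAMP plus 0.008 μCi 3H-cAMP in 50 mM Tris pH 7.8, 8.3 mM MgCl2, 1.7 mM EGTA, 1% DMSO final. Product quantified by scintillation proximity counting against no-enzyme blanks and DMSO controls.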

The target in the next experiment is PDE8A1 (Homo sapiens, UniProt O60658). Nature of the experiment: In vitro PDE selectivity assay, PDE8A. The experiment is classed as biochemical. Particulars: Table 4a in vitro selectivity; read-out: IC50 PDE type 8A. The method, then:
as §1

For the next experiment, the target named is PDE6AB (Homo sapiens, UniProt P16499+P35913). Nature of the experiment: In vitro PDE selectivity assay, PDE6AB. The experiment is classed as biochemical. As to conditions: Table 4a in vitro selectivity; read-out: IC50 PDE type 6AB. The method, then: as §1
Another experiment addresses PDE11A (Homo sapiens, UniProt Q9HCR9). In words: In vitro PDE selectivity assay, PDE11A. The experiment is classed as biochemical. As to conditions: Table 4a in vitro selectivity; read-out: IC50 PDE type 11A. As for the experimental part:
as §1

Experiment [4] deals with conditioned avoidance response. Nature of the experiment: Conditioned avoidance response (CAR) test. The experiment is classed as in vivo. As to conditions: Rattus norvegicus. The source says: Conditioned Avoidance Response (CAR) Test
The apparatus consisted of an inner box surrounded by an outer box. The inner box was composed of four walls of transparent, synthetic material (length×width×height: 30×30×30 cm), an open top, and a grid floor made of 15 pairs of iron bars (2 mm diameter; 6 mm inter-bar distance). Odd and even bars were connected with a source of alternative current (1.0 mA; Coulbourn Instruments Solid State Shocker/Distributor), which could be interrupted by a switch. The outer box was composed of the same material (length×width×height: 40×40×36 cm), also with an open top, with a distance of 5 cm between the inner and outer box on all sides. To decrease the amount of environmental stimuli, three walls of the outer box were made non-transparent. The front wall was left transparent to allow the necessary inspection of the animal during the test. The upper edge of the outer and inner box served as a target for the rats on which to jump with fore- and hind-paws, respectively.
From their arrival in the laboratory on the experimental day, male Wiga Wistar rats (230±30 g) were housed in individual cages provided with bedding material.
The rats were tested 3 times, i.e. at 60, 90 and 120 min after the injection of test compound or solvent. Latency to avoidance was recorded. The median avoidance response obtained over the three experimental sessions for each rat were used for further calculations.

The ED50 is the dose that gives a 50% effect, or the effect in half of the subjects.

Sequence of PDE6AB (P16499 whole entry): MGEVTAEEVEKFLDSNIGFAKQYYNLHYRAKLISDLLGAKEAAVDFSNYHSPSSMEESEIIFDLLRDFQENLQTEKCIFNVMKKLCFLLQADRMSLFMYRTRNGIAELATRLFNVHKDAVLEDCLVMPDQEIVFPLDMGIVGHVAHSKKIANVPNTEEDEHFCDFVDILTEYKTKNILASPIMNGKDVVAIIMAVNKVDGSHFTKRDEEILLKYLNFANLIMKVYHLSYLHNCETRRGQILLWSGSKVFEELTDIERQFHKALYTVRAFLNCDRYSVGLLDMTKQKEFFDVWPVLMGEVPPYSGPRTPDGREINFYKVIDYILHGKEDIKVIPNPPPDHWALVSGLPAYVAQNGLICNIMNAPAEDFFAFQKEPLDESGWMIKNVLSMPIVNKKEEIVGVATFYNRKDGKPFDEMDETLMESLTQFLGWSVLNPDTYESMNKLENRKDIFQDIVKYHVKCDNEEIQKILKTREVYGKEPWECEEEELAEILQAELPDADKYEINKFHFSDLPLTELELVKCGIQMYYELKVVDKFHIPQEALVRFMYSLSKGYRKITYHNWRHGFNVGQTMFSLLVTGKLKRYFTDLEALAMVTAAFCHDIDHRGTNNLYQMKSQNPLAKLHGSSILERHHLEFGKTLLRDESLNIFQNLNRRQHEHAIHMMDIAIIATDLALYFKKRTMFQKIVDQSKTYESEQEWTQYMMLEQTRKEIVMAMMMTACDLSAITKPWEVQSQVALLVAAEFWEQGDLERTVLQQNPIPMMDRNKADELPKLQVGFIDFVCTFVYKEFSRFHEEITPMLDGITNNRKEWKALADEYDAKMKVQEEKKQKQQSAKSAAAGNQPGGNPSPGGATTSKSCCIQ
Sequence of PDE6AB (P35913 whole entry): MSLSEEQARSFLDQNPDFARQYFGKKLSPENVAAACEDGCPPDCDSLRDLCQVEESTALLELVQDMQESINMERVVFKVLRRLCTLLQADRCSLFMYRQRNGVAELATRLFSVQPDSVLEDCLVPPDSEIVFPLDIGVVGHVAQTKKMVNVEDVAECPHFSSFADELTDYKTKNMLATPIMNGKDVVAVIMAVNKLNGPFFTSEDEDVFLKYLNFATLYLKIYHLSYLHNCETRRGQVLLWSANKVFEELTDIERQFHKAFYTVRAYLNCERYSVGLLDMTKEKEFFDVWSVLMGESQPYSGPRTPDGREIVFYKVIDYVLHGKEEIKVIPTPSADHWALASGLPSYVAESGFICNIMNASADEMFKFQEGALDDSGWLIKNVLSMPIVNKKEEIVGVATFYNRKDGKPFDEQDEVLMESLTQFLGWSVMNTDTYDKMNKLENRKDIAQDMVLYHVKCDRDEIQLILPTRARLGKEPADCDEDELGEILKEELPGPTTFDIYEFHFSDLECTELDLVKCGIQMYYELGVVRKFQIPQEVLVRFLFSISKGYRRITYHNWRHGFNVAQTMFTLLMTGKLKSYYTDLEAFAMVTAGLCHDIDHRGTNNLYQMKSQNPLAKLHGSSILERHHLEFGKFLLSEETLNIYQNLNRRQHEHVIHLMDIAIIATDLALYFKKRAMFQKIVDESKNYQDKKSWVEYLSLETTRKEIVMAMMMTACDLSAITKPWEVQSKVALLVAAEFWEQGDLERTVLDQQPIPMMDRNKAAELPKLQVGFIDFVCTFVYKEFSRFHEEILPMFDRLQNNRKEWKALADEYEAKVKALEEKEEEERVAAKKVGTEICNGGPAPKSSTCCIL
Sequence of PDE8A1 (O60658 whole entry, species assumed): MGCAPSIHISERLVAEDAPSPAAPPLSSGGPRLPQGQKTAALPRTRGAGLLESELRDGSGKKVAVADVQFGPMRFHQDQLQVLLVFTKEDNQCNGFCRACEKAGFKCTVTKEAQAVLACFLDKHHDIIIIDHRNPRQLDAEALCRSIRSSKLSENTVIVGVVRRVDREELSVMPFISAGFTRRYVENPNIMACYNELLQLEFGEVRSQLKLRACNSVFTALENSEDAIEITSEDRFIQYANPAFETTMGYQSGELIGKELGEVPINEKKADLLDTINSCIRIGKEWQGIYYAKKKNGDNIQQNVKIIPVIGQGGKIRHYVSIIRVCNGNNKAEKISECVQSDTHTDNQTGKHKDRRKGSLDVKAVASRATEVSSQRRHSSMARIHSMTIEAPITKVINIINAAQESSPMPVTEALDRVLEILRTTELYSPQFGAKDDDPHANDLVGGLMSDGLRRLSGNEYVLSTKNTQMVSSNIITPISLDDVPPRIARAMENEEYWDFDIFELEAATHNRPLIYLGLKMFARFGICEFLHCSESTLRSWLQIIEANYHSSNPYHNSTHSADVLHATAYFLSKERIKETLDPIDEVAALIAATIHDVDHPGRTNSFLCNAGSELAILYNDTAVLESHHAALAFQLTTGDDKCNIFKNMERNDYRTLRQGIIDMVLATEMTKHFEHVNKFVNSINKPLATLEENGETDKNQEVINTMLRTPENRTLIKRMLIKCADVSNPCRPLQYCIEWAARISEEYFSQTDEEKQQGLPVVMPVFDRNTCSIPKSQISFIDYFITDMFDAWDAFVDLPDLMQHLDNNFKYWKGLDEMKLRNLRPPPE
Sequence of PDE4D (Q08499 whole entry, species assumed): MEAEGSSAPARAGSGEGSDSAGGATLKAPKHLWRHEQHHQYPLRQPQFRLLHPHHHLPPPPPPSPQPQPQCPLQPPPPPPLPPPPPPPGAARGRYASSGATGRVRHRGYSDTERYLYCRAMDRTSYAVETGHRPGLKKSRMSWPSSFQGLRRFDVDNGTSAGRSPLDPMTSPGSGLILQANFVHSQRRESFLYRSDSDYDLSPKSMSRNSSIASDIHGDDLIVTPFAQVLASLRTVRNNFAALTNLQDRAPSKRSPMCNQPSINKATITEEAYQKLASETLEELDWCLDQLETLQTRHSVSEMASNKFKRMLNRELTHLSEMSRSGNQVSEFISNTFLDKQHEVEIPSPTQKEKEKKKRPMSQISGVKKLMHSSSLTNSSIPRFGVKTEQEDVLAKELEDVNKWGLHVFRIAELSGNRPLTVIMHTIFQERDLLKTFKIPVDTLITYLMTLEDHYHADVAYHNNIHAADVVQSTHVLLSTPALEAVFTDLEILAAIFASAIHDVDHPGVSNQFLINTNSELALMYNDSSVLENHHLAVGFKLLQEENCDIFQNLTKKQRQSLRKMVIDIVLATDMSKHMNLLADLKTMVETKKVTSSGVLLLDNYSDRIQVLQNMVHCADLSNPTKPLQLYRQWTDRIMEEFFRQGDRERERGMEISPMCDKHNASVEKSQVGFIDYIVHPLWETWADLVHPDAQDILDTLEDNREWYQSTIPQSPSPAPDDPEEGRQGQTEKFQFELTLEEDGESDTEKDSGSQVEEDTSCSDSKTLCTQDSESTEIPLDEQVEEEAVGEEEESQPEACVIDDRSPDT
Sequence of PDE11A (Q9HCR9 whole entry, species assumed): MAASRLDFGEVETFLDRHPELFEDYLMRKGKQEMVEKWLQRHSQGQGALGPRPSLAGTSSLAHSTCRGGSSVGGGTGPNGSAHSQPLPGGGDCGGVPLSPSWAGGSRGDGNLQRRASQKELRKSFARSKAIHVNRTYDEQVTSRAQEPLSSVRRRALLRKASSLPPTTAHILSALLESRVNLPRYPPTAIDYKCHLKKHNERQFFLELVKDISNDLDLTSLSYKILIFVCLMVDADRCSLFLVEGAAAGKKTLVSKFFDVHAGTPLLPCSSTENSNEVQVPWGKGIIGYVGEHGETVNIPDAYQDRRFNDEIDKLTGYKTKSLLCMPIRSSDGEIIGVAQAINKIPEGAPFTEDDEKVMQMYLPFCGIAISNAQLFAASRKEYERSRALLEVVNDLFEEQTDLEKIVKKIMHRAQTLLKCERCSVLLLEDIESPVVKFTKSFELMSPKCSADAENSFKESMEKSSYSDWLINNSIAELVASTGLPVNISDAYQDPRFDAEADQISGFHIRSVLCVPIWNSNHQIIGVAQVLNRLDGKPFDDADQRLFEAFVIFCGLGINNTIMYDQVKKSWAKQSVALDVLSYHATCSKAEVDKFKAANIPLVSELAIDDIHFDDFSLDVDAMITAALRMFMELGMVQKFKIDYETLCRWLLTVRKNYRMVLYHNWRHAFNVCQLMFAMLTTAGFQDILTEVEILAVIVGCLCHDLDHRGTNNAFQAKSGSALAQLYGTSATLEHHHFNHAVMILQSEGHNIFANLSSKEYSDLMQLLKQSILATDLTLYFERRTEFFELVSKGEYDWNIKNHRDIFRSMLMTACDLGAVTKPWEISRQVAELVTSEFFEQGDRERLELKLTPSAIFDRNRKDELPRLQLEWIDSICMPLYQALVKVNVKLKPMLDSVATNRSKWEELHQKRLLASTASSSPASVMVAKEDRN

Regarding `Cc1nc2c(N3CCOCC3)nccn2c1-c1ccc(C2CCOCC2)nc1` [compound 25, 2-Methyl-8-morpholin-4-yl-3-[6-(tetrahydro-pyran-4-yl)-pyridin-3-yl]-imidazo[1,2-a]pyrazine], the IC50 is 33.9 µM at PDE5A; 58.9 µM at PDE4D; 0.16 µM in experiment [3] (Table 4a in vitro selectivity, read-out: IC50 PDE type 10A); 0.191 µM in experiment [3] (pIC50 corresponds to the -log IC50 expressed in mol/L, read-out: PDE10A2 pIC50 (converted)); greater than 100 µM on PDE8A1; 96.5 µM on PDE6AB. Further, the IC50 at PDE11A amounted to 66.1 µM. Besides, the values for the ED50 in experiment [1], in experiment [2] and in [4] were 2 mg/kg, 1.2 mg/kg and 4.1 mg/kg, respectively.
